Measurements published in patent US6346535B1, “Fungicidal mixtures” (American Cyanamid Company, priority 1999, dated 2002).
Where two headings read alike, the source gives them in different places.

Experiments:
Type in all cases: in vivo
[1] = tested on: Erysiphe cichoracearum on cucumbers; assay: Greenhouse trial, 4 day residual, Erysiphe cichoracearum on cucumbers; conditions: Golovinomyces cichoracearum, 96 h, read-out: Observed Efficacy; for pest or weed control at 0.4 ppm: dose rate 0.4 ppm; for pest or weed control at 10 ppm: dose rate 10 ppm; for pest or weed control at 50 ppm: dose rate 50 ppm
Summary of the method: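 Cucumber plants were sprayed to near run-off with compounds or mixtures (5% acetone/0.05% Tween 20 aqueous). Four days later they were inoculated by dusting with Erysiphe cichoracearum conidia. Percent diseased leaf area was assessed about 7 days after inoculation, and efficacy and Colby synergy were calculated from it.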

[2] = tested on: Blumeria graminis on wheat; assay: Greenhouse trial, 4 day curative, Blumeria graminis on wheat; conditions: compound alone
Procedure: The trials are carried out under greenhouse (Examples 1 to 18) or field conditions (Example 19) in residual or curative applications. The fungicides are applied in single treatments, or in a combination comprising a benzophenone of formula I and a compound selected from (A) through (E) as defined above. The compounds are applied in form of an aqueous spray mix obtained from a concentrated formulation or the technical material. […] Seed is planted in 6 cm diameter plastic pots and maintained in the greenhouse. […] When the primary leaf is fully expanded (in the case of cereals) or several leaves are present (in the case of dicots), formulated test compounds are sprayed with a three nozzle overhead fungicide sprayer to near run-off. Alternatively, a single nozzle overhead track sprayer is used for application of the compounds to cereals at a rate of 200 liters/ha (l/ha). Plants are then allowed to air-dry. […] Inoculation precedes treatment in the case of curative evaluations and follows treatment in case of residual evaluations. For inoculation of powdery mildew disease, plants are set up on greenhouse benches with bottom watering mats and inoculated by dusting them with conidia from infected plants. Between inoculation and treatment for curative evaluations and between treatment and inoculation for residual evaluations, plants are maintained in the greenhouse with bottom watering. For inoculation of non-powdery mildew diseases, an aqueous spore suspension of the pathogen is applied to the plant and the plants are kept 1-2 days in a moist infection chamber before being returned to the greenhouse where they are maintained by bottom watering. […] Disease on the foliage as percent leaf area with disease symptoms/signs is evaluated about 7 days after inoculation. In the case of wheat, the tips and bases of the leaves are excluded from the evaluation. [formula] […] Compounds are dissolved in acetone prior to addition of the water; the Tween 20 can be added through either the acetone or the water. Dilutions are made using the solvent/surfactant system. Formulated compounds are prepared using deionized water. Assessments of the diseases took place at the indicated day after the application of the compounds. Per cent infected leaf area infected was evaluated. […] Synergy of a fungicide mixture was determined by comparing the actual (observed) fungicidal activity of the mixture to the expected fungicidal activity of the mixture as calculated using the COLBY formula given hereinabove.

[3] = tested on: Blumeria graminis on wheat; assay: Greenhouse trial, 3 day protective, Blumeria graminis on wheat; conditions: Table V, compound alone
Description: (§1) The fungicides are applied in single treatments, or in a combination comprising a benzophenone of formula I and a compound selected from (A) through (E) as defined above. The compounds are applied in form of an aqueous spray mix obtained from a concentrated formulation or the technical material.
(§2) 1. Seed is planted in 6 cm diameter plastic pots and maintained in the greenhouse.
(§3) 2. When the primary leaf is fully expanded (in the case of cereals) or several leaves are present (in the case of dicots), formulated test compounds are sprayed with a three nozzle overhead fungicide sprayer to near run-off. Alternatively, a single nozzle overhead track sprayer is used for application of the compounds to cereals at a rate of 200 liters/ha (l/ha). Plants are then allowed to air-dry.
(§4) 3. Inoculation precedes treatment in the case of curative evaluations and follows treatment in case of residual evaluations. For inoculation of powdery mildew disease, plants are set up on greenhouse benches with bottom watering mats and inoculated by dusting them with conidia from infected plants. Between inoculation and treatment for curative evaluations and between treatment and inoculation for residual evaluations, plants are maintained in the greenhouse with bottom watering. For inoculation of non-powdery mildew diseases, an aqueous spore suspension of the pathogen is applied to the plant and the plants are kept 1-2 days in a moist infection chamber before being returned to the greenhouse where they are maintained by bottom watering.
(§5) 4. Disease on the foliage as percent leaf area with disease symptoms/signs is evaluated about 7 days after inoculation. In the case of wheat, the tips and bases of the leaves are excluded from the evaluation. [formula]
(§6) 1. Technical compounds are formulated in a solvent/surfactant system consisting of 5% acetone and 0.05% Tween 20 in deionized water. Compounds are dissolved in acetone prior to addition of the water; the Tween 20 can be added through either the acetone or the water. Dilutions are made using the solvent/surfactant system. Formulated compounds are prepared using deionized water.
(§7) Assessments of the diseases took place at the indicated day after the application of the compounds. Per cent infected leaf area infected was evaluated. The efficacy of the compounds/compounds mixtures to control the diseases was calculated by using the formula given above under item 4: […]
(§8) Synergy of a fungicide mixture was determined by comparing the actual (observed) fungicidal activity of the mixture to the expected fungicidal activity of the mixture as calculated using the COLBY formula given hereinabove.
Fungicidal Efficacy of the Mixture of BP-5+Triforine (3 Day Protective) Against Blumeria graminis on Wheat
Fungicidal Efficacy of the Mixture of BP-1+Triadimefon (3 Day Protective) Against Blumeria graminis on Wheat

[4] = tested on: Pyrenophora teres on barley; assay: Greenhouse trial, 4 day residual, Pyrenophora teres on barley; conditions: Pyrenophora teres, 96 h, Table XIII (Example 13), 4 day residual, read-out: Observed Efficacy
Description: as §1, §2, §3, §4, §5, §6, §7, §8
Fungicidal Efficacy of the Mixture of BP-4+Other Fungicides (4 Day Residual) Against Pyrenophora teres on Barley

[5] = tested on: Blumeria graminis f. sp. tritici on wheat; assay: Greenhouse trial, 2 day curative, Blumeria graminis f. sp. tritici on wheat; conditions: Table XVII, compound alone
Procedure: as §1, with “The trials are carried out under greenhouse (Examples 1 to 18) or field conditions (Example 19) in residual or curative applications. The fungicides” for “The fungicides”
as §2, §3, §4, §5, §6, §7, §8
Fungicidal Efficacy of the Mixture of Different Benzophenones+Metconazole (2 Day Curative) Against Blumeria graminis f. sp. tritici on Wheat
The tank mixes were obtained from technical material of the benzophenones BP-2 and BP-4 and metconazole.

Cercospora beticola = assay: Field trial against the sugar beet disease Cercospora beticola; conditions: Table XIX, compound alone
Procedure: The trials are carried out under greenhouse (Examples 1 to 18) or field conditions (Example 19) in residual or curative applications. The fungicides are applied in single treatments, or in a combination comprising a benzophenone of formula I and a compound selected from (A) through (E) as defined above. The compounds are applied in form of an aqueous spray mix obtained from a concentrated formulation or the technical material. For the field study formulated benzophenones BP-1 through BP-4 and formulated compounds from (A) through (E) were used. The compounds are applied according to good agricultural practice in form of an aqueous spray mix obtained from concentrated formulation or the technical material at a rate of 400 l/ha. The disease control is evaluated according to the formula given for the greenhouse tests. Fungicidal Efficacy of the Mixture of BP-1+Metconazole in the Field Against the Sugar Beet Disease Cercospora beticola The tank mix was obtained from a SC formulation containing 100 g of BP-1 per liter and a SL formulation containing 60 g of metconazole per liter.

[6] = Table XIV (Example 14), 4 day residual

`CC(C)(C)C(=O)C(Oc1ccc(Cl)cc1)n1cncn1` (stereo not drawn) [triadimefon] showed a pest or weed control at 0.4 ppm [1, 6] of 0%, a pest or weed control at 2 ppm ([1]; Table XIV (Example 14), 4 day residual, dose rate 2 ppm) of 6% and a pest or weed control at 10 ppm [1, 6] of 23%. The pest or weed control at 50 ppm [1, 6] was 47%, the “Observed Efficacy” value ([2]; Table III, dose rate 25 ppm) was 12% and the “Observed Efficacy” value ([2]; Table III, dose rate 125 ppm) was 30%. The “Observed Efficacy” value ([3]; dose rate 25 ppm) was 24%.
`CC1(C)CCC(Cc2ccc(Cl)cc2)C1(O)Cn1cncn1` (stereo not drawn) [Metconazole] gave a pest or weed control at 0.4 ppm ([4]; dose rate 0.4 ppm) of 0%, a pest or weed control at 10 ppm ([4]; dose rate 10 ppm) of 47% and a pest or weed control at 0.4 ppm ([1]; Table XI, compound alone) of 2%. The pest or weed control at 10 ppm ([1]; Table XI, compound alone) was 75%, the pest or weed control at 50 ppm ([1]; Table XI, compound alone) was 99% and the “Observed Efficacy” value ([5]; dose rate 0.33 ppm) was 0%. For the same compound, the “Observed Efficacy” value ([5]; dose rate 1 ppm) was 2%, the “Observed Efficacy” value ([5]; dose rate 3 ppm) was 7% and the “Observed Efficacy” value ([5]; dose rate 9 ppm) was 14%. For the same compound, the “Observed Efficacy” value ([5]; dose rate 27 ppm) was 40% and the “Observed Efficacy” value (Cercospora beticola; dose rate 90 g/ha) was 58%.
`CCCCOc1c(OC)c(OC)cc(C)c1C(=O)c1c(Cl)cccc1Cl` [BP-1, 6′-butoxy-2,6-dichloro-4′,5′-dimethoxy-2′-methylbenzophenone] was tested, and the “Observed Efficacy” value ([2]; Table I, dose rate 25 ppm) was 1%, the “Observed Efficacy” value ([2]; Table I, dose rate 125 ppm) was 42% and the “Observed Efficacy” value ([2]; Table II, dose rate 25 ppm) was 1%. The “Observed Efficacy” value ([2]; Table II, dose rate 125 ppm) was 42%, the “Observed Efficacy” value ([2]; Table III, dose rate 25 ppm) was 1% and the “Observed Efficacy” value ([2]; Table III, dose rate 125 ppm) was 42%. For the same compound, the “Observed Efficacy” value (Cercospora beticola; dose rate 250 g/ha) was 42.5%, the “Observed Efficacy” value ([3]; dose rate 1 ppm) was 44% and the “Observed Efficacy” value ([3]; dose rate 5 ppm) was 78%.
